Assays:
[1] = biological target: T1, Recombinant human DDR1 (Homo sapiens, UniProt Q08345); experiment: LanthaScreen Eu Kinase Binding Assay, DDR1; conditions: recombinant human DDR1 (2.5 nM; aa440-876, GST tag), Kinase Tracer 178 5 nM, time-resolved fluorescence, at least two independent replicates; read-out: DDR1 pIC50 (converted)
T1 construct: Recombinant human DDR1 (2.5 nM; aa440-876 containing a GST tag)
Method: (§1) DDR1 and DDR2 Biochemical Assay Method
(§2) The capacity of compounds to bind to DDR1 and DDR2 was quantified using a LanthaScreen Eu Kinase Binding Assay. Recombinant human DDR1 (2.5 nM; aa440-876 containing a GST tag) and DDR2 (1.75 nM; aa427-855 containing a GST tag) were diluted in assay buffer (50 mM HEPES pH7.3, 10 mM MgCl2, 1 mM EGTA and 0.01% Tween) with various concentrations of compound in a 384-well plate and a volume of 5 uL. After a 30-minute incubation at room temperature, 2.5 uL of Eu-anti GST antibody (diluted to 1 nM in assay buffer) plus Kinase Tracer 178 (diluted in assay buffer to 5 nM for DDR1 and 10 nM for DDR2) were added to the plate. Following 60-minute incubation at room temperature, time-resolved fluorescence was measured on a BMG Labtech PHERAstar plate reader. DMSO (1%) and reference compound (1 μM) were used to generate the Max and Min assay signals, respectively. Data was analysed using a four-parameter logistic model to calculate IC50 values, with at least two independent replicates were performed for each compound.

[2] = biological target: T2, Recombinant human DDR2 (Homo sapiens, UniProt Q16832); experiment: LanthaScreen Eu Kinase Binding Assay, DDR2; conditions: recombinant human DDR2 (1.75 nM; aa427-855, GST tag), Kinase Tracer 178 10 nM, time-resolved fluorescence, at least two independent replicates; read-out: DDR2 pIC50 (converted)
T2 construct: DDR2 (1.75 nM; aa427-855 containing a GST tag)
T2 sequence (Q16832 427-855): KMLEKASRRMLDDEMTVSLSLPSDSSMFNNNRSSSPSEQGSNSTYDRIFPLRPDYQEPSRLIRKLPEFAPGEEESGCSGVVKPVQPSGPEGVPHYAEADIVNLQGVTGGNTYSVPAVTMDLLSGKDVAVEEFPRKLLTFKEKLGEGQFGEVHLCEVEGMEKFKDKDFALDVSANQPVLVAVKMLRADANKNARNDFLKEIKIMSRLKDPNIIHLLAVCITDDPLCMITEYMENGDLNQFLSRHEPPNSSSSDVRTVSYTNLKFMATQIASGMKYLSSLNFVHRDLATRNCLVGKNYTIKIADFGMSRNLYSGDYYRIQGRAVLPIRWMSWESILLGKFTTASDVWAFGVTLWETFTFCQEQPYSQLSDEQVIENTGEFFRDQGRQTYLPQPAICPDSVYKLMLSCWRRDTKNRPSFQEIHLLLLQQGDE
Method: as §1, §2

T1 sequence (Q08345 440-876 isoform Q08345-2): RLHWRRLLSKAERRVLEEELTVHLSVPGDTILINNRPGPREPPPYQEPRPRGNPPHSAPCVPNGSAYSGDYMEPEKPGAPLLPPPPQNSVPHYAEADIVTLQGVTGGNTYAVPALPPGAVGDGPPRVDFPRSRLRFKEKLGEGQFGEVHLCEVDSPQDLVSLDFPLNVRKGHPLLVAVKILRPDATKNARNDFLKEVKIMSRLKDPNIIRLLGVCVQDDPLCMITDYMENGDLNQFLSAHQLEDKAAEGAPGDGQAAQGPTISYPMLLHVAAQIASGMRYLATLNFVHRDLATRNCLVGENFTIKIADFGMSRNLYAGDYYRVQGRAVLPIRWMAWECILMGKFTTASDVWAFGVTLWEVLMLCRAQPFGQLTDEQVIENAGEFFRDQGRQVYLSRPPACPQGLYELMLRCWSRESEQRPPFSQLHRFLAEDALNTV

`Cn1ncc2cc(Nc3cccc4ccn(CC(=O)NC5(C(F)(F)F)CC5)c(=O)c34)ccc21` [Example 21, 2-[8-[(1-methylindazol-5-yl)amino]-1-oxo-2-isoquinolyl]-N-[1-(trifluoromethyl)cyclopropyl]acetamide] showed an IC50 [1] of 0.01 to 0.1 µM and an IC50 [2] of 0.1 to 1 µM.
For `COc1ccc(NC(=O)Cn2ccc3cccc(Nc4ccc5c(cnn5C)c4)c3c2=O)cc1` [Example 55, N-(4-methoxyphenyl)-2-[8-[(1-methylindazol-5-yl)amino]-1-oxo-2-isoquinolyl]acetamide], the IC50 [1] was 0.01 to 0.1 µM and the IC50 [2] was ≥ 1 µM.
With `Cn1ncc2cc(Nc3cccc4ccn(CC(=O)Nc5cncnc5)c(=O)c34)ccc21` [Example 25, 2-[8-[(1-methylindazol-5-yl)amino]-1-oxo-2-isoquinolyl]-N-pyrimidin-5-yl-acetamide] the IC50 [1] was 0.1 to 1 µM and the IC50 [2] was ≥ 1 µM.
`Cn1ncc2cc(Nc3cccc4ccn(CC(=O)Nc5cnoc5)c(=O)c34)cnc21` [Example 101] gave an IC50 [1] of 0.01 to 0.1 µM and an IC50 [2] of 0.1 to 1 µM.
For `O=C(Cn1ccc2cccc(Nc3ccc4[nH]ncc4c3)c2c1=O)NCC(F)(F)F` [Example 1, 2-[8-(1H-indazol-5-ylamino)-1-oxo-2-isoquinolyl]-N-(2,2,2-trifluoroethyl)acetamide], the IC50 [1] was 0.01 to 0.1 µM and the IC50 [2] was ≥ 1 µM.
For `Cn1ncc2cc(Nc3cccc4ccn(CC(=O)NCC(C)(C)O)c(=O)c34)ccc21` [Example 54, N-(2-hydroxy-2-methyl-propyl)-2-[8-[(1-methylindazol-5-yl)amino]-1-oxo-2-isoquinolyl]acetamide], the IC50 [1] was 0.1 to 1 µM and the IC50 [2] was ≥ 1 µM.
With `CN(C)Cc1cc(NC(=O)Cn2ccc3cccc(Nc4ccc5c(cnn5C)c4)c3c2=O)cc(C(F)(F)F)c1` [Example 154, N-[3-[(dimethylamino)methyl]-5-(trifluoromethyl)phenyl]-2-[8-[(1-methylindazol-5-yl)amino]-1-oxo-2-isoquinolyl]acetamide] the IC50 [1] was < 0.01 µM and the IC50 [2] was 0.01 to 0.1 µM.
For `Cn1ncc2cc(Nc3cccc4ccn(CC(=O)Nc5cnoc5)c(=O)c34)ccc21` [Example 37, N-isoxazol-4-yl-2-[8-[(1-methylindazol-5-yl)amino]-1-oxo-2-isoquinolyl]acetamide], the IC50 [1] was < 0.01 µM and the IC50 [2] was 0.01 to 0.1 µM.
`Cn1ncc2cc(Nc3cccc4ccn(CC(=O)Nc5cncc(C(F)(F)F)c5)c(=O)c34)cnc21` [Example 99, 2-[8-({1-methyl-1H-pyrazolo[3,4-b]pyridine-5-5-yl}amino)1-oxo-1,2-dihydroisoquinolin-2-yl]-N-[5-(trifluoromethyl)pyridine-3-yl]acetamide] was tested, and the IC50 [1] was 0.01 to 0.1 µM and the IC50 [2] was 0.01 to 0.1 µM.
Work on `CN(CC(F)(F)F)C(=O)Cn1ccc2cccc(Nc3ccc4c(cnn4C)c3)c2c1=O` [Example 23, N-methyl-2-[8-[(1-methylindazol-5-yl)amino]-1-oxo-2-isoquinolyl]-N-(2,2,2-trifluoroethyl)acetamide] yielded an IC50 [1] of 0.01 to 0.1 µM and an IC50 [2] of 0.1 to 1 µM.
For `Cn1ncc2cc(Nc3cccc4ccn(CC(=O)NCC(F)(F)F)c(=O)c34)cc(C(N)=O)c21` [Example 125, 1-Methyl-5-[[1-oxo-2-[2-oxo-2-(2,2,2-trifluoroethylamino)ethyl]-8-isoquinolyl]amino]indazole-7-carboxamide], the IC50 [1] was 0.1 to 1 µM and the IC50 [2] was ≥ 1 µM.
In the case of `CC(C(=O)NCC(F)(F)F)n1ccc2cccc(Nc3ccc4c(cnn4C)c3)c2c1=O` (stereo not drawn) [Example 51, 2-[8-[(1-methylindazol-5-yl)amino]-1-oxo-2-isoquinolyl]-N-(2,2,2-trifluoroethyl) propanamide], the IC50 [1] is reported as ≥ 1 µM and the IC50 [2] is reported as ≥ 1 µM.
For `CC(=O)C1CCCCN1C(=O)Cn1ccc2cccc(Nc3ccc4c(cnn4C)c3)c2c1=O` (stereo not drawn) [Example 141, 2-[2-(2-acetyl-1-piperidyl)-2-oxoethyl]-8-[(1-methylindazol-5-yl)amino]isoquinolin-1-one], the IC50 [1] was 0.1 to 1 µM and the IC50 [2] was ≥ 1 µM.
`Cn1cc(NC(=O)Cn2ccc3cccc(Nc4ccc5c(cnn5C)c4)c3c2=O)cn1` [Example 41, 2-[8-[(1-methylindazol-5-yl)amino]-1-oxo-2-isoquinolyl]-N-(1-methylpyrazol-4-yl)acetamide] was tested, and the IC50 [1] was 0.1 to 1 µM and the IC50 [2] was ≥ 1 µM.
`Cn1ncc2cc(Nc3cccc4ccn(CC(=O)NCCC(F)(F)F)c(=O)c34)ccc21` [Example 44, 2-[8-[(1-methylindazol-5-yl)amino]-1-oxo-2-isoquinolyl]-N-(3,3,3-trifluoropropyl)acetamide] was tested, and the IC50 [1] was 0.1 to 1 µM and the IC50 [2] was ≥ 1 µM.
In the case of `C[C@@H]1COC[C@H](C)N1C(=O)Cn1ccc2cccc(Nc3ccc4c(cnn4C)c3)c2c1=O` [Example 96, 2-{2-[(3R,5S)-3,5-dimethylmorphin-4-yl]-2-oxoethyl}-8-[(1-methyl-1H-indazol-5-yl)amino]-1,2-dihydroisoquinolin-1-one], the IC50 [1] is reported as 0.1 to 1 µM and the IC50 [2] is reported as ≥ 1 µM.
For `Cn1ncc2cc(Nc3cccc4ccn(CC(=O)Nc5cnco5)c(=O)c34)ccc21` [Example 95, 2-{8-[(1-methyl-1H-indazol-5-yl)amino]-1-oxo-1,2-dihydroisoquinolin-2-yl}-N-(1,3-oxazol-5-yl)acetamide], the IC50 [1] was 0.01 to 0.1 µM and the IC50 [2] was 0.1 to 1 µM.
With `Cn1ncc2cc(Nc3cccc4ccn(CC(=O)NCC56CCCN5CCC6)c(=O)c34)ccc21` [Example 138] the IC50 [1] was ≥ 1 µM and the IC50 [2] was ≥ 1 µM.
For `Cn1cnc(NC(=O)Cn2ccc3cccc(Nc4ccc5c(cnn5C)c4)c3c2=O)c1` [Example 81, N-(1-methylimidazol-4-yl)-2-[8-[(1-methylindazol-5-yl)amino]-1-oxo-2-isoquinolyl]acetamide], the IC50 [1] was 0.01 to 0.1 µM and the IC50 [2] was ≥ 1 µM.
`Cn1ncc2cc(Nc3cccc4ccn(CC(=O)N5CCCCC5)c(=O)c34)ccc21` [Example 93] was tested, and the IC50 [1] was 0.1 to 1 µM and the IC50 [2] was 0.1 to 1 µM.
Work on `CN(C)CCc1ccc(NC(=O)Cn2ccc3cccc(Nc4ccc5c(cnn5C)c4)c3c2=O)cc1C(F)(F)F` [Example 133, N-[4-[(dimethylamino)ethyl]-3-(trifluoromethyl)phenyl]-2-[8-[(1-methylindazol-5-yl)amino]-1-oxo-2-isoquinolyl]acetamide] yielded an IC50 [1] of 0.01 to 0.1 µM and an IC50 [2] of 0.1 to 1 µM.
With `Cn1ncc2cc(Nc3cccc4ccn(CC(=O)NCC5CC5)c(=O)c34)ccc21` [Example 16] the IC50 [1] was 0.01 to 0.1 µM and the IC50 [2] was 0.1 to 1 µM.
For `CC(=O)c1cccc(NC(=O)Cn2ccc3cccc(Nc4ccc5c(cnn5C)c4)c3c2=O)c1` [Example 32, N-(3-acetylphenyl)-2-[8-[(1-methylindazol-5-yl)amino]-1-oxo-2-isoquinolyl]acetamide], the IC50 [1] was < 0.01 µM and the IC50 [2] was 0.01 to 0.1 µM.
With `COC(=O)C1CCN(C(=O)Cn2ccc3cccc(Nc4ccc5c(cnn5C)c4)c3c2=O)C1` (stereo not drawn) [Example 73, methyl 1-[2-[8-[(1-methylindazol-5-yl)amino]-1-oxo2-isoquinolyl]acetyl]pyrrolidine-3-carboxylate] the IC50 [1] was 0.1 to 1 µM and the IC50 [2] was ≥ 1 µM.
With `C[C@@H](NC(=O)Cn1ccc2cccc(Nc3ccc4c(cnn4C)c3)c2c1=O)C(F)(F)F` [Example 20, 2-[8-[(1-methylindazol-5-yl)amino]-1-oxo-2-isoquinolyl]-N-[(1R)-2,2,2-trifluoro-1-methyl-ethyl]acetamide] the IC50 [1] was 0.1 to 1 µM and the IC50 [2] was 0.1 to 1 µM.
`Cn1ncc2cc(Nc3cccc4ccn(CC(=O)N5CCCC(C(F)(F)F)C5)c(=O)c34)ccc21` (stereo not drawn) [Example 121] gave an IC50 [1] of 0.01 to 0.1 µM and an IC50 [2] of 0.1 to 1 µM.
In the case of `Cn1ncc2cc(Nc3cccc4ccn(CC(=O)NC(C5CC5)C(F)(F)F)c(=O)c34)ccc21` (stereo not drawn) [Example 33, N-(1-cyclopropyl-2,2,2-trifluoro-ethly)-2-[8-[(1-methylindazol-5-yl)amino]-1-oxo-2-isoquinolyl]acetamide], the IC50 [1] is reported as 0.01 to 0.1 µM and the IC50 [2] is reported as 0.1 to 1 µM.
For `Cn1ncc2cc(Nc3cccc4ccn(CC(=O)Nc5ccccc5)c(=O)c34)ccc21` [Example 39, 2-[8-[(1-methylindazol-5-yl)amino]-1-oxo-2-isoquinolyl]-N-phenyl-acetamide], the IC50 [1] was 0.01 to 0.1 µM and the IC50 [2] was ≥ 1 µM.
With `CN1CCN(Cc2ccc(NC(=O)Cn3ccc4cccc(Nc5ccc6c(cnn6C)c5)c4c3=O)cc2C(F)(F)F)CC1` [Example 76] the IC50 [1] was 0.01 to 0.1 µM and the IC50 [2] was 0.01 to 0.1 µM.
Work on `Cn1ncc2cc(Nc3cccc4ccn(CC(=O)NC(c5ccccc5)C(F)(F)F)c(=O)c34)ccc21` (stereo not drawn) [Example 35, 2-[8-[(1-methylindazol-5-yl)amino]-1-oxo-2-isoquinolyl]-N-(2,2,2-trifluoro-1-phenyl-ethyl)acetamide] yielded an IC50 [1] of 0.01 to 0.1 µM and an IC50 [2] of 0.1 to 1 µM.

— patent US12692247B2, “Phenyl- and pyridopyrazole derivatives as inhibitors of DDR1” (Redx Pharma Limited, priority 2021, dated 2026)
